Source: patent publication US20220194951A1, “DIHYDROPYRIMIDINE COMPOUND AND APPLICATION THEREOF AS DRUG” (SUNSHINE LAKE PHARMA CO., LTD., priority 2019, published 2022)
Each block holds one compound with its values, some of them ahead of it.

How the values were obtained:
[1] = PK test on cynomolgus monkeys; assay type: in vivo; conditions: male, cynomolgus monkey, plasma; for bioavailability: read-out: F (absolute bioavailability)
Procedure: (4) PK Test on Cynomolgus Monkeys:
The PK test method of the compound in vivo of cynomolgus monkeys (purchased from Guangdong Chunsheng Biotechnology Development Co., Ltd., weight 3-6 kg, male, ages of 4-6 years, 3 per oral group, 3 per intravenous injection group):
The cynomolgus monkeys were administered intragastrically with the test compound at doses of 2.5 mg/kg or 5 mg/kg or administered intravenously with the test compound at doses of 0.5 mg/kg or 1 mg/kg.
Blood samples were taken at 0.083, 0.25, 0.5, 1, 2, 4, 6, 8 and 24 hours from vein after the administration, and collected in anticoagulation tube with EDTA-K2. After liquid-liquid extraction, the plasma sample was quantitatively analyzed on a triple quadrupole tandem mass spectrometer using multiple reactive ion monitoring (MRM). Pharmacokinetic parameters were calculated using a noncompartmental method by WinNonLin 6.3 software.

HBV [2] = test: Inhibition of HBV DNA replication in HepAD38 cells (qPCR method); assay type: cell-based; conditions: Hepatitis B virus, secreted virus DNA by qPCR
Source text: Test 1: Evaluation of HepAD38 Cells on the Compound's Inhibitory Activity of HBV DNA Replication (qPCR Method)
HBV Cell Strain and Culture Conditions
HepAD38: Ladner et al. (Ladner, Otto et al. 1997) ligated the tetracycline-sensitive cytomegalovirus CMV promoter to the PBR322 plasmid and ligated it with the ayw subtype HBV DNA into the ptetHBV plasmid, and HepG2 cells were transfected to obtain the HepAD38 cell strain. Due to the destruction of the pre-C region gene, the yield of HBV DNA was about 11 times higher than that of HepG2.2.15 cells. Tetracycline could be used to regulate HBV replication, and the time required for culture was only half of that of HepG2.2.15 cells. It was suitable for studying the HBV replication process and replication intermediates and screening of anti-HBV drugs. HepAD38 was cultured in DMEM/F-12K medium containing 10% FBS and 1% double antibody (it also contained Tetracycline at a final concentration of 300 ng/ml and G418 at a final concentration of 400 μg/ml).
The virus particle DNA secreted by HepAD38 cells could be quantified by qPCR method, and thus the influence of the compound on virus replication could be detected.
(§1) Test of Anti HBV Activity In Vitro
After resuscitating the HepAD38 with a small number of passages, after the cells were in good condition, Tetracycline (final concentration of 300 ng/ml) and G418 (final concentration of 400 μg/ml) were added into the medium. […] After the cells were full, they were digested, counted, and diluted with DMEM/F-12K medium containing 10% FBS (containing Tetracycline at a final concentration of 300 ng/ml and G418 at a final concentration of 400 μg/ml, 1% double antibody) to a cell suspension of concentration of 2×10^5/mL. The cell suspension was seeded in a 96-well plate (the whole plate was covered) at 100 μL per well, and incubated at 37° C. in a constant temperature incubator with 5% CO2 for 24 h.
Compound preparation and cell treatment in antiviral experiments: the compound was dissolved with DMSO to 20 mM. Furthermore, the compound was diluted with DMSO to 800 μM, and then 8 dilutions at 4 fold were performed, the highest concentration was 800 μM. 1 μL of serially diluted compound was added to each well of the above-mentioned cell plate. The highest final concentration of the experiment was 4 μM (200 fold dilution). TDF (tenofovir disoproxil fumarate, Selleck, Cat S1400) was used as a positive control compound with a highest concentration of 4 μM. 1 μL of DMSO was added to the negative control wells to a final concentration of 0.5%.
The one-step hepatitis B virus nucleic acid quantitative determination kit for 48 people (PCR-fluorescent probe method) of Shengxiang Biotechnology was used for QPCR. 2.5 μL of supernatant was absorbed for Q-PCR, and the kit reagents were vortexed and mixed well after the reagents were melted before use. After centrifugation, the enzyme mixture was placed on ice for later use, and it was ensured that the subsequent steps were completed on the ice. 2.5 μL of sample release agent and 2.5 μL of test sample supernatant (experimental group, control group, standard curve group) were added to each well of the Q-PCR plate. After QPCR reaction, the copy number of virus DNA in each well was obtained. Graphpad Prism 5 software was used to process the concentration-virus copy number, and the EC50 of the compound against virus replication was calculated through a four-parameter nonlinear regression model.

HBV [3] = test: Inhibition of HBV DNA replication in HepG2.2.15 cells (qPCR); assay type: cell-based; conditions: Hepatitis B virus, secreted virus DNA by qPCR
Procedure: Test 2: Evaluation of HepG2.2.15 Cells on the Compound's Inhibitory Activity of HBV DNA Replication
HBV Cell Line and Culture Conditions
The chromosomes of HepG2.2.15 cells (SELLS, PNAS, 1987 and SELLS, JV, 1988) integrated a complete HBV genome and stably expressed viral RNA and viral proteins. HepG2.2.15 cells could secrete mature hepatitis B virus particles, HBsAg and HBeAg into the culture medium. HepG2.2.15 cells were cultured in a DMEM medium containing 10% fetal bovine serum, 100 U/mL penicillin, 100 U/mL streptomycin, 1% non-essential amino acids, 1 mM sodium pyruvate and 300 µg/mL G418.
The virus particle DNA secreted by HepG2.2.15 cells could be quantified by qPCR method, and the influence of the compound on virus replication could be detected.
as §1
8,000 HepG 2.2.15 cells per well were seeded into a 96-well cell culture plate, the plate was cultured at 37° C. and 5% CO2 for 3 days until the cells grew to full wells. Old liquid medium was discard and replaced with 200 μL of new medium (5% FBS) on day 0. […]
Primers: HBV-For-202, […]; HBV-Rev-315, […]. […] Graphpad Prism 5 software was used to process the concentration-virus copy number, and the EC50 of the compound against virus replication was calculated through a four-parameter nonlinear regression model.

AUC(0-t) ([1]; iv, 0.5 mg/kg): 720 ng·h/mL | Tmax ([1]; iv, 0.5 mg/kg): 4.98 min | AUC(0-t) ([1]; po, 2.5 mg/kg): 647 ng·h/mL | Tmax ([1]; po, 2.5 mg/kg): 90 min | bioavailability ([1]; po, 2.5 mg/kg): 23.6%
SMILES: COC(=O)C1=C(CN2CCN3C(=O)N(c4ccc(C(=O)O)cc4)C[C@@H]3C2)NC(c2nccs2)=N[C@H]1c1ccc(F)cc1Cl [Control compound, 4-((S)-7-(((R)-6-(2-chloro-4-fluorophenyl)-5-(methoxycarbonyl)-2-(thiazol-2-yl)-3,6-dihydropyrimidin-4-yl)methyl)-3-oxohexahydroimidazo[1,5-a]pyrazine-2(3H)-yl)benzoic acid, reference compound]

SMILES: COC(=O)C1=C(CN2CCN3C(=O)N(c4ccc(C(=O)O)cc4F)C[C@@H]3C2)NC(c2nccs2)=N[C@H]1c1ccc(F)cc1Cl [Example 1]
EC50 (HBV [2]): 20 nM

SMILES: COC(=O)C1=C(CN2CCN3C(=O)N(c4ccc(C(=O)O)c(F)c4)C[C@@H]3C2)NC(c2nccs2)=N[C@H]1c1ccc(F)cc1Cl [Example 2]
EC50 (HBV [3]): 4 nM | AUC(0-t) ([1]; iv, 0.5 mg/kg): 1020 ng·h/mL | Tmax ([1]; iv, 0.5 mg/kg): 4.98 min | AUC(0-t) ([1]; po, 2.5 mg/kg): 3380 ng·h/mL | Tmax ([1]; po, 2.5 mg/kg): 30 min | bioavailability ([1]; po, 2.5 mg/kg): 64.8% | EC50 (HBV [2]): 10 nM

SMILES: CCOC(=O)C1=C(CN2CCN3C(=O)N(c4ccc(C(=O)O)cc4F)C[C@@H]3C2)NC(c2nccs2)=N[C@H]1c1ccc(F)cc1Br [Example 3]
EC50 (HBV [2]): 31 nM

SMILES: CCOC(=O)C1=C(CN2CCN3C(=O)N(c4ccc(C(=O)O)c(F)c4)C[C@@H]3C2)NC(c2nccs2)=N[C@H]1c1ccc(F)cc1Br [Example 4]
EC50 (HBV [2]): 16 nM

SMILES: CCOC(=O)C1=C(CN2CCN3C(=O)N(c4ccc(C(=O)O)c(F)c4)C[C@@H]3C2)NC(c2nccs2)=N[C@H]1c1ccc(F)cc1Cl [Example 6]
EC50 (HBV [2]): 15 nM

SMILES: CCOC(=O)C1=C(CN2CCN3C(=O)N(c4ccc(C(=O)O)cc4F)C[C@@H]3C2)NC(c2nccs2)=N[C@H]1c1ccc(Cl)cc1Cl [Example 7]
EC50 (HBV [2]): 16 nM

SMILES: CCOC(=O)C1=C(CN2CCN3C(=O)N(c4ccc(C(=O)O)c(F)c4)C[C@@H]3C2)NC(c2nccs2)=N[C@H]1c1ccc(Cl)cc1Cl [Example 8]
EC50 (HBV [2]): 13 nM
